Data published in article PMC6100582 (Molecules : A Journal of Synthetic Chemistry and Natural …, 2018).
Converted amounts (≈) assume the structure as drawn. Read-outs that look alike come from different tables or passages of the source.

Legend:
[1] = tested on: Mycobacterium tuberculosis H37Ra; assay: Antimycobacterial susceptibility assay (MIC determination); type: cell-based; conditions: 168 h, 7 days, 37 °C, alamarBlue
Description: At log phase growth, a culture sample (10 mL) was centrifuged at 15,000 rpm/20 min using a bench-top centrifuge (MPW-65R, MPW Med Instruments, Poland). Following removal of the supernatant, the pellet was washed in fresh Middlebrook 7H9GC broth and re-suspended in fresh, ODAC-supplemented MB (10 mL). The turbidity was adjusted to match McFarland standard No. 1 (3 × 10^8 CFU) with MB broth. A further 1:20 dilution of the culture was then performed in MB broth. The antimicrobial susceptibility of M. tuberculosis was investigated in a 96-well plate format. In these experiments, sterile deionised water (300 µl) was added to all outer-perimeter wells of the plates to minimize evaporation of the medium in the test wells during incubation. Each evaluated compound (100 µL) was incubated with M. tuberculosis (100 µl). Dilutions of each compound were prepared in duplicate. For all synthesized compounds, final concentrations ranged from 1000 μg/mL to 8 μg/mL. All compounds were dissolved in DMSO, and subsequent dilutions were made in supplemented MB. […] Following incubation, 10% of alamarBlue (Difco, Lawrence, KS, USA) was mixed into each well, and readings at 570 nm and 600 nm were taken, initially for background subtraction and subsequently after 24 h reincubation. […] For non-interfering compounds, a blue colour in the well was interpreted as the absence of growth, and a pink colour was scored as growth.

[2] = tested on: Mycobacterium marinum CAMP 5644; assay: as above; type: cell-based; conditions: Mycobacterium marinum, CAMP5644, 504 h
Description: The broth dilution micro-method in Middlebrook 7H9 medium (Difco, Lawrence, KS, USA) supplemented with ADC Enrichment (Becton, Dickinson and Comp.) was used to determine MIC as previously described. […] Bacterial inocula were prepared by transferring colonies from culture to sterile water. The cell density was adjusted to 0.5 McFarland units using a densitometer (Densi-La-Meter, LIAP, Riga, Latvia). The final inoculum was made by 1:1000 dilution of the suspension with sterile water. Drug-free controls, sterility controls and controls consisted of medium and DMSO (Sigma-Aldrich, St. Louis, MO, USA) alone were included. […] Ciprofloxacin (CIP), rifampicin (RIF) and isoniazid (INH) (Sigma-Aldrich, St. Louis, MO, USA) were used as the standards.

[3] = tested on: Capan-1 (pancreatic adenocarcinoma); assay: Antiproliferative screening (cytostatic activity); type: cell-based; conditions: Homo sapiens, CAPAN-1, 72 h, read-out: IC50 Capan-1
Description: (§1) All human tumor cell lines were acquired from the American Type Culture Collection (ATCC, Manassas, VA, USA), except for the DND-41 cell line which was purchased from the Deutsche Sammlung von Mikroorganismen und Zellkulturen (DSMZ Leibniz-Institut, Braunschweig, Germany) and the Hap1 cell line which was purchased from Horizon Discovery (Waterbeach, UK). […] All media were supplemented with 10% FBS (HyClone, GE Healthcare Life Sciences, USA). […] After overnight incubation, cells were treated with test compounds at four different concentrations ranging from 100 to 0.8 µM. […] Images were taken every 3 h, with one field image per well under 10× magnification. All compounds were tested with duplicate data points and averaged.

[4] = tested on: HCT-116 (colorectal carcinoma); assay: Antiproliferative screening (cytostatic activity); type: cell-based; conditions: Homo sapiens, HCT-116, 72 h, read-out: IC50 HCT-116
Description: as §1

[5] = tested on: K-562 (chronic myeloid leukemia); assay: Antiproliferative screening (cytostatic activity); type: cell-based; conditions: Homo sapiens, K562, 72 h, read-out: IC50 K-562
Description: as §1

[6] = tested on: MM.1S (multiple myeloma); assay: Antiproliferative screening (cytostatic activity); type: cell-based; conditions: Homo sapiens, MM1.S, 72 h, read-out: IC50 MM.1S
Description: as §1

[7] = tested on: NCI-H460 (lung carcinoma); assay: Antiproliferative screening (cytostatic activity); type: cell-based; conditions: Homo sapiens, NCI-H460, 72 h, read-out: IC50 NCI-H460
Description: as §1

[8] = tested on: Z-138 (non-Hodgkin lymphoma); assay: Antiproliferative screening (cytostatic activity); type: cell-based; conditions: Homo sapiens, Z-138, 72 h, read-out: IC50 Z-138
Description: as §1

[9] = tested on: HL-60 (acute myeloid leukemia); assay: Antiproliferative screening (cytostatic activity); type: cell-based; conditions: Homo sapiens, HL-60, 72 h, read-out: IC50 HL-60
Description: (§2) Cytostatic activity was evaluated in vitro on nine different types of human tumor cell lines: Capan-1, Hap1, HCT-116, and NCI-H460, as well as hematological tumors such as DND-41, HL-60, K-562, MM.1S and Z-138 as described previously. All human tumor cell lines were acquired from the American Type Culture Collection (ATCC, Manassas, VA, USA), except for the DND-41 cell line which was purchased from the Deutsche Sammlung von Mikroorganismen und Zellkulturen (DSMZ Leibniz-Institut, Braunschweig, Germany) and the Hap1 cell line which was purchased from Horizon Discovery (Waterbeach, UK). Capan-1, Hap1, HL-60, K-562, Z-138, MM.1S and DND-41 were cultured in Iscove′s Modified Dulbecco′s Medium (IMDM, Gibco Life Technologies, Gaithersburg, MD, USA), HCT-116 were grown in McCoy′s 5A Medium (Gibco Life Technologies) and NCI-H460 were cultured in RPMI (Gibco Life Technologies). All media were supplemented with 10% FBS (HyClone, GE Healthcare Life Sciences, USA). Adherent cell lines HCT-116, Hap1, NCI-H460, and Capan-1 cells were seeded at a density between 400 and 1250 cells per well, in 384-well, black-walled, clear-bottomed tissue culture plates (Greiner Bio-One, Kremsmünster, Germany). After overnight incubation, cells were treated with test compounds at four different concentrations ranging from 100 to 0.8 µM. Suspension cell lines HL-60, K-562, Z-138, MM.1S, and DND-41 were seeded at densities ranging from 3000 to 10,000 cells per well in 384-well, black-walled, clear-bottomed tissue culture plates containing test compounds at the same four concentrations. The plates were incubated and monitored at 37 °C for 72 h in an IncuCyte (Essen BioScience Inc., Ann Arbor, MI, USA) for real-time imaging. Images were taken every 3 h, with one field image per well under 10× magnification. All compounds were tested with duplicate data points and averaged. […]

[10] = tested on: Hap1 (chronic myeloid leukemia); assay: Antiproliferative screening (cytostatic activity); type: cell-based; conditions: Homo sapiens, HAP1, 72 h, read-out: IC50 Hap1
Description: as §2

[11] = tested on: DND-41 (acute lymphoblastic leukemia); assay: Antiproliferative screening (cytostatic activity); type: cell-based, human; conditions: Homo sapiens, DND41, 72 h, 72 h, read-out: IC50 DND-41
Description: as §2

[12] = DXT and STS values in nM (footnote)

Work on `O=C(O)c1cn(C2CC2)c2cc(N3CCNCC3)c(F)cc2c1=O` [CIP, ciprofloxacin, reference compound] yielded an MIC [1] of 16 µg/mL (≈ 48.3 µM) and an MIC [2] of 0.3 µg/mL (≈ 0.905 µM).
In the case of `COc1cc(NC(C)CCCNC(=O)CCC(=O)Nc2cccc(F)c2)c2ncccc2c1` (centres unmarked) [Compound 5a, N-(3-Fluorophenyl)-N′-{4-[(6-methoxyquinolin-8-yl)amino]pentyl}butanediamide], the melting point is reported as 140 to 142 °C.
Work on `COc1cc(NC(C)CCCNC(=O)CCC(=O)Nc2ccc(F)cc2)c2ncccc2c1` (centres unmarked) [Compound 5b, N-(4-Fluorophenyl)-N′-{4-[(6-methoxyquinolin-8-yl)amino]pentyl}butanediamide] yielded a melting point of 118 to 120 °C.
`COc1cc(NC(C)CCCNC(=O)CCC(=O)Nc2cccc(Cl)c2)c2ncccc2c1` (centres unmarked) [Compound 5c, N-(3-Chlorophenyl)-N′-{4-[(6-methoxyquinolin-8-yl)amino]pentyl}butanediamide] gave a melting point of 156 to 158 °C.
In the case of `COc1cc(NC(C)CCCNC(=O)CCC(=O)Nc2ccc(Cl)cc2)c2ncccc2c1` (centres unmarked) [Compound 5d, N-(4-Chlorophenyl)-N′-{4-[(6-methoxyquinolin-8-yl)amino]pentyl}butanediamide], the melting point is reported as 152 to 153 °C.
For `COc1cc(NC(C)CCCNC(=O)CCC(=O)Nc2cccc(C(F)(F)F)c2)c2ncccc2c1` (centres unmarked) [Compound 5e, N′-{4-[(6-Methoxyquinolin-8-yl)amino]pentyl}-N-[3-(trifluoromethyl)phenyl]butanediamide], the melting point was 146 to 149 °C.
For `COc1cc(NC(C)CCCNC(=O)CCC(=O)Nc2ccc(C(F)(F)F)cc2)c2ncccc2c1` (centres unmarked) [Compound 5f, N′-{4-[(6-Methoxyquinolin-8-yl)amino]pentyl}-N-[4-(trifluoromethyl)phenyl]butanediamide], the melting point was 163 to 165 °C.
`CC(=O)O[C@@]12CO[C@@H]1C[C@H](O)[C@@]1(C)C(=O)[C@H](O)C3=C(C)[C@@H](OC(=O)[C@H](O)[C@@H](NC(=O)OC(C)(C)C)c4ccccc4)C[C@@](O)([C@@H](OC(=O)c4ccccc4)[C@H]21)C3(C)C` [DXT, docetaxel, reference compound] gave an IC50 [3, 12] of 0.75 nM, an IC50 [4, 12] of 7.66 nM and an IC50 [5, 12] of 1.22 nM. For the same compound, the IC50 [6, 12] was 3.38 nM, the IC50 [7, 12] was 1.3 nM and the IC50 [8, 12] was 5.42 nM. For the same compound, the IC50 [9, 12] was 1.24 nM, the IC50 [10, 12] was 1.17 nM and the IC50 [11, 12] was 0.94 nM.
For `COc1cc([C@@H]2c3cc4c(cc3[C@@H](O[C@@H]3O[C@@H]5CO[C@@H](C)O[C@H]5[C@H](O)[C@H]3O)[C@H]3COC(=O)[C@H]23)OCO4)cc(OC)c1O` [EPEG, etoposide, reference compound], the IC50 ([3]; IncuCyte imaging) was 150 nM, the IC50 ([4]; IncuCyte imaging) was 1350 nM and the IC50 ([5]; IncuCyte imaging) was 10 nM. For the same compound, the IC50 ([6]; IncuCyte imaging) was 970 nM, the IC50 ([7]; IncuCyte imaging) was 90 nM and the IC50 ([8]; IncuCyte imaging) was 20 nM. For the same compound, the IC50 ([9]; IncuCyte imaging) was 30 nM, the IC50 ([10]; IncuCyte imaging) was 40 nM and the IC50 ([11]; IncuCyte imaging) was 30 nM.
Compound `NNC(=O)c1ccncc1` [INH, isoniazid, reference compound] has an MIC [1] of 5 µg/mL (≈ 36.5 µM) and an MIC [2] of 64 µg/mL (≈ 467 µM).
In the case of `CO[C@H]1/C=C/O[C@@]2(C)Oc3c(C)c(O)c4c(O)c(c(/C=N/N5CCN(C)CC5)c(O)c4c3C2=O)NC(=O)/C(C)=C\C=C\[C@H](C)[C@H](O)[C@@H](C)[C@@H](O)[C@@H](C)[C@H](OC(C)=O)[C@@H]1C` [RIF, rifampicin, reference compound], the MIC [2] is reported as 2.2 µg/mL (≈ 2.67 µM).
For `CN[C@@H]1C[C@H]2O[C@@](C)([C@@H]1OC)n1c3ccccc3c3c4c(c5c6ccccc6n2c5c31)C(=O)NC4` [STS, staurosporine, reference compound], the IC50 [9, 12] was 13.1 nM, the IC50 [10, 12] was 3.56 nM and the IC50 [11, 12] was 6.96 nM.
